# Reference: the C3SDB collision cross section collection
# Details: [M+H]+; instrument: TW; calibrated with polyalanine and drug standards
row,SMILES,collision cross section (N2) [Å²]
1,CCc1oc2ccccc2c1C(=O)c1cc(Br)c(O)c(Br)c1 [BENZBROMARONE],176
2,CC[C@H]1OC(=O)C[C@@H](O)[C@H](C)[C@@H](O[C@@H]2O[C@H](C)[C@@H](O[C@H]3C[C@@](C)(O)[C@@H](O)[C@H](C)O3)[C@H](N(C)C)[C@H]2O)[C@@H](CC=O)C[C@@H](C)C(=O)/C=C/C(C)=C/[C@@H]1CO[C@@H]1O[C@H](C)[C@@H](O)[C@@H](OC)[C@H]1OC [TYLOSIN],307.8
3,C=C[C@H]1CN2CC[C@H]1C[C@@H]2[C@@H](OC(=O)OCC)c1ccnc2ccc(OC)cc12 [QUININE ETHYL CARBONATE],196.7
4,C[C@@H]1O[C@@H](O[C@H]2[C@H](O[C@H]3CC[C@@]4(C)[C@@H](CC[C@]5(C)[C@@H]4CC=C4[C@@H]6CC(C)(C)CC[C@]6(C(=O)O[C@@H]6O[C@H](CO[C@@H]7O[C@H](CO)[C@@H](O[C@@H]8O[C@@H](C)[C@H](O)[C@@H](O)[C@H]8O)[C@H](O)[C@H]7O)[C@@H](O)[C@H](O)[C@H]6O)CC[C@]45C)[C@]3(C)CO)OC[C@H](O)[C@@H]2O)[C@H](O)[C@H](O)[C@H]1O [HEDERACOSIDE C],349.1
5,CC1(C)C[C@@H]2C(=O)CC[C@H]3O[C@]3(C)CC[C@H]21 [KOBUSONE],146.3
6,NC(=O)N/N=C/c1ccc([N+](=O)[O-])o1 [NITROFURAZONE],138.6
7,CN(C)C(=S)SSC(=S)N(C)C [THIRAM],148.4
8,"Cc1cc(=O)oc2cc(O)cc(O)c12 [5,7-DIHYDROXY-4-METHYLCOUMARIN]",134.4
9,O=C(O)[C@H](O)[C@@H](O)[C@H](O[C@@H]1O[C@H](CO)[C@H](O)[C@H](O)[C@H]1O)[C@H](O)CO [LACTOBIONIC ACID],168.7
10,Oc1cccc2cccnc12 [8-HYDROXYQUINOLINE],123.6

# The remaining lines, values ahead:
row,collision cross section (N2) [Å²],SMILES
1,200.6,CC(C)n1c(/C=C/[C@@H](O)C[C@@H](O)CC(=O)O)c(-c2ccc(F)cc2)c2ccccc21 [FLUVASTATIN]
2,148.9,O=c1cc(-c2ccccc2)oc2cc(O)ccc12 [7-HYDROXYFLAVONE]
3,134.7,"O=c1cccc2ccc(O)c(O)c2c1O [3,4,6-trihydroxy-5H-benzo[a]cyclohepten-5-one]"
4,122.2,O=C(O)c1ccccc1 [BENZOIC ACID]
5,194.7,CC(=O)OCC(=O)[C@@]1(O)CCC2C3CCC4=CC(=O)C=C[C@]4(C)[C@@]3(F)[C@@H](O)C[C@@]21C (stereo partly drawn) [ISOFLUPREDNONE ACETATE]
6,153.5,"O=C(/C=C/c1ccccc1)c1ccc(O)cc1O [2',4'-DIHYDROXYCHALCONE]"
7,141.1,CN1C(=O)CC[C@H]1c1cccnc1 [COTININE]
8,159.4,Cc1cc2c(cc1S(N)(=O)=O)S(=O)(=O)CCC2 [METICRANE]
9,136.9,Cn1c([N+](=O)[O-])cnc1COC(N)=O [RONIDAZOLE]
10,197.3,COc1c(C)c2c(c(O)c1C/C=C(\C)CCC(=O)OCCN1CCOCC1)C(=O)OC2 [MYCOPHENOLATE MOFETIL]
11,231,C[C@H]1O[C@H](O[C@H]2[C@H](O)[C@@H](O)[C@@H](O[C@H]3[C@H](O)[C@@H](O)C(O)O[C@@H]3CO)O[C@@H]2CO)[C@H](O)[C@@H](O)[C@@H]1N[C@H]1C=C(CO)[C@@H](O)[C@H](O)[C@H]1O (stereo partly drawn) [ACARBOSE]
12,218.1,"CCC(=O)OCC(=O)[C@@]1(OC(=O)CC)[C@@H](C)C[C@H]2[C@@H]3CCC4=CC(=O)C=C[C@]4(C)[C@@]3(F)[C@@H](O)C[C@@]21C [BETAMETHASONE 17,21-DIPROPIONATE]"
13,170.7,CS(=O)(=O)c1ccc([C@@H](O)[C@@H](CO)NC(=O)C(Cl)Cl)cc1 [THIAMPHENICOL]
